Source: patent US20250114460A1, “NOVEL PLK1 DEGRADATION INDUCING COMPOUND” (UPPTHERA, INC., priority 2021, published 2025)
pIC50: −log10 of the molar value.

Key:
Format in all cases: cell-based
[1] = tested on: MRC-5 cell line; experiment: Cell viability assay for MRC-5 cell line (EZ-Cytox); details: Homo sapiens, MRC5, 120 h; MRC-5 normal cell line, 5 days, 10000 nM to 1.52 nM; N.D. = no cytotoxicity until 10 μM; read-out: Activity: IC50 value of Exemplary Compound to MRC-5 cell line
Procedure: 4. Cell Viability Assay for MRC-5 Cell Line
(1) Culture of MRC-5 Cell Line
Passage of cultured cells was maintained within P15.
(2) Treatment of Compounds of the Present Invention
Then, it was cultured in 37° C.
(3) Cytotoxicity Experiment
CO2 incubator for 4 hours.

[2] = tested on: NCI-H526 cell line; experiment: Cell viability assay for H526 cell (EZ-Cytox); details: Homo sapiens, NCI-H526, 120 h; H526 cells, 5 days, 3000 nM to 0.46 nM
How it was run: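 NCI-H526 cells were exposed to compound in CO2 incubator culture for 5 days. Viability was read by EZ-Cytox absorbance at 450 nm after 3 min shaking, giving IC50 values.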

[3] = biological target: T1, PLK1 (Homo sapiens, UniProt P53350); experiment: Luciferase assay for PLK1 in HeLa LgBit (Plk1-HiBit KI) cell line; details: 300 nM compound, luminescence after 9 hours
T1 construct: endogenous in cells; host or cells: HeLa LgBit (Plk1-HiBit KI): HeLa stably expressing LgBit, with a CRISPR/Cas9 knock-in of HiBit at the endogenous PLK1 locus
T1 sequence (P53350 whole entry): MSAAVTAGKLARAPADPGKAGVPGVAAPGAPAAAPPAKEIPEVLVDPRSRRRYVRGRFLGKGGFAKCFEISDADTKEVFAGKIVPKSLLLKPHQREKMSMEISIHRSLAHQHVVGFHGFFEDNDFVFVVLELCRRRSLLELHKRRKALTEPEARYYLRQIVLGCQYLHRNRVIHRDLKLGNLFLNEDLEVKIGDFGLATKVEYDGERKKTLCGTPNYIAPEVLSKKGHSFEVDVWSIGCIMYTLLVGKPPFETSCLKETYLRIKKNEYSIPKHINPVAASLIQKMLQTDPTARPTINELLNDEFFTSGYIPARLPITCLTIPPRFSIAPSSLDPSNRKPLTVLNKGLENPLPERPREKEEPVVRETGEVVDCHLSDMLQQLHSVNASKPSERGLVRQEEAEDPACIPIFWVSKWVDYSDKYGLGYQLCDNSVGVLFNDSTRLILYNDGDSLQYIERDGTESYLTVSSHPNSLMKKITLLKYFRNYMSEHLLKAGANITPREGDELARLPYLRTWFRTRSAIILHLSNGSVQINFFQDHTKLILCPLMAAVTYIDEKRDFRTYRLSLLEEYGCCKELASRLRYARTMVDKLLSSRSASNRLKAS
How it was run: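 HeLa cells stably expressing LgBit, with HiBit knocked in at the C-terminus of endogenous Plk1, released from a 24 h 2 mM thymidine block and grown 18 h. Endurazine added, then compound at 300 nM; luminescence tracked in real time, expressed as ratio to DMSO.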

Activity: ratio of the luminescense value of each Exemplary Compound treatment group to DMSO treatment group [3] | SMILES | pIC50 [1] | pIC50 [2]
++ (++<0.6) | CN1C(=O)C(F)(F)CN(C2CCCC2)c2nc(Nc3ccc(C(=O)NC4CCN(C(=O)CCN5CCN(c6cccc7c6C(=O)N(C6CCC(=O)NC6=O)C7=O)CC5)CC4)cc3F)ncc21 (stereo not drawn) [Compound 118, 4-((9-cyclopentyl-7,7-difluoro-5-methyl-6-oxo-6,7,8,9-tetrahydro-5H-pyrimido[4,5-b][1,4]diazepin-2-yl)amino)-N-(1-(3-(4-(2-(2,6-dioxopiperidin-3-yl)-1,3-dioxoisoindolin-4-yl)piperazin-1-yl)propanoyl)piperidin-4-yl)-3-fluorobenzamide] | < 5.00 | > 7.30
++ (++<0.6) | COc1cc(C(=O)N2CCN(C/C=C/CN3CCN(c4ccc5c(c4)C(=O)N(C4CCC(=O)NC4=O)C5=O)CC3)CC2)ccc1Nc1ncc2c(n1)N(C1CCCC1)CC(F)(F)C(=O)N2C (stereo not drawn) [Compound 92, (E)-5-(4-(4-(4-(4-((9-cyclopentyl-7,7-difluoro-5-methyl-6-oxo-6,7,8,9-tetrahydro-5H-pyrimido[4,5-b][1,4]diazepin-2-yl)amino)-3-methoxybenzoyl)piperazin-1-yl)but-2-en-1-yl)piperazin-1-yl)-2-(2,6-dioxopiperidin-3-yl)isoindoline-1,3-dione] | < 5.00 | > 6.70
++ (++<0.6) | COc1cc(C(=O)N[C@H]2CC[C@H](OC3CCN(c4cccc5c4C(=O)N(C4CCC(=O)NC4=O)C5=O)CC3)CC2)c(F)cc1Nc1ncc2c(n1)N(C1CCCC1)CC(F)(F)C(=O)N2C (stereo partly drawn) [Compound 115, 4-((9-cyclopentyl-7,7-difluoro-5-methyl-6-oxo-6,7,8,9-tetrahydro-5H-pyrimido[4,5-b][1,4]diazepin-2-yl)amino)-N-((1r,4r)-4-((1-(2-(2,6-dioxopiperidin-3-yl)-1,3-dioxoisoindolin-4-yl)piperidin-4-yl)oxy)cyclohexyl)-2-fluoro-5-methoxybenzamide] | < 5.00 | > 6.40
++ (++<0.6) | COc1cc(C(=O)NC2CC(N(C)CCC3CCN(c4cccc5c4C(=O)N(C4CCC(=O)NC4=O)C5=O)CC3)C2)ccc1Nc1ncc2c(n1)N(C1CCCC1)CC(F)(F)C(=O)N2C (stereo not drawn) [Compound 107, 4-((9-cyclopentyl-7,7-difluoro-5-methyl-6-oxo-6,7,8,9-tetrahydro-5H-pyrimido[4,5-b][1,4]diazepin-2-yl)amino)-N-(3-((2-(1-(2-(2,6-dioxopiperidin-3-yl)-1,3-dioxoisoindolin-4-yl)piperidin-4-yl)ethyl)(methyl)amino)cyclobutyl)-3-methoxybenzamide] | < 5.00 | > 7.00
++ (++<0.6) | COc1cc(C(=O)NC2CCN(C(=O)CCCOc3cccc4c3C(=O)N(C3CCC(=O)NC3=O)C4=O)CC2)c(F)cc1Nc1ncc2c(n1)N(C1CCCC1)CC(F)(F)C(=O)N2C (stereo not drawn) [Compound 30, 4-((9-cyclopentyl-7,7-difluoro-5-methyl-6-oxo-6,7,8,9-tetrahydro-5H-pyrimido[4,5-b][1,4]diazepin-2-yl)amino)-N-(1-(4-((2-(2,6-dioxopiperidin-3-yl)-1,3-dioxoisoindolin-4-yl)oxy)butanoyl)piperidin-4-yl)-2-fluoro-5-methoxybenzamide] | < 5.00 | > 7.00
++ (++<0.6) | COc1cc(C(=O)N2CCN(CCN3CCN(c4ccc5c(c4)C(=O)N(C4CCC(=O)NC4=O)C5=O)CC3)CC2)ccc1Nc1ncc2c(n1)N(C1CCCC1)CC(F)(F)C(=O)N2C (stereo not drawn) [Compound 89, 5-(4-(2-(4-(4-((9-cyclopentyl-7,7-difluoro-5-methyl-6-oxo-6,7,8,9-tetrahydro-5H-pyrimido[4,5-b][1,4]diazepin-2-yl)amino)-3-methoxybenzoyl)piperazin-1-yl)ethyl)piperazin-1-yl)-2-(2,6-dioxopiperidin-3-yl)isoindoline-1,3-dione] | < 5.00 | > 6.40
++ (++<0.6) | COc1cc(C(=O)NC2CCN(C(=O)CCN3CCN(c4cccc5c4CN(C4CCC(=O)NC4=O)C5=O)CC3)CC2)ccc1Nc1ncc2c(n1)N(C1CCCC1)CC(F)(F)C(=O)N2C (stereo not drawn) [Compound 81, 4-((9-cyclopentyl-7,7-difluoro-5-methyl-6-oxo-6,7,8,9-tetrahydro-5H-pyrimido[4,5-b][1,4]diazepin-2-yl)amino)-N-(1-(3-(4-(2-(2,6-dioxopiperidin-3-yl)-1-oxoisoindolin-4-yl)piperazin-1-yl)propanoyl)piperidin-4-yl)-3-methoxybenzamide] | < 5.00 | > 7.30
